A word on the pIC50: it is the IC50 on a negative log10 scale, so that one unit is a factor of ten.

One test has as its target T1, human recombinant COX-2 (Homo sapiens, UniProt P35354).
T1 construct: purchased Oxford Biomedical Research Inc
T1 sequence (P35354 18-604): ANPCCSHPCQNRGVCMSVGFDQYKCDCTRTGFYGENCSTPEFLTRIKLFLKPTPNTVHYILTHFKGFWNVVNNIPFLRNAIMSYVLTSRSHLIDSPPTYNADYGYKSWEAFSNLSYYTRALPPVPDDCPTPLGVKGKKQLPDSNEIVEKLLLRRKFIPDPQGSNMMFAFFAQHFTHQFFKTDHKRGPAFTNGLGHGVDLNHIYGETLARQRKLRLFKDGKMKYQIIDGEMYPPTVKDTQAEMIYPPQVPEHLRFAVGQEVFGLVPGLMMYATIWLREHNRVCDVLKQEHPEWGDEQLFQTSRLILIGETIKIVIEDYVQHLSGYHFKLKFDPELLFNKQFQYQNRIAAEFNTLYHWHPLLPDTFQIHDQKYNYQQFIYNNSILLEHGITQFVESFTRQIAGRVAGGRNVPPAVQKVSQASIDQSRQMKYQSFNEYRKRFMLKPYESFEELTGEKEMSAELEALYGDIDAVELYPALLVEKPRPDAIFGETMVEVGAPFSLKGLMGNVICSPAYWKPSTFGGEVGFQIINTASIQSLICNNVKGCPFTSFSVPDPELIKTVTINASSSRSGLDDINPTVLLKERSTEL
Kind of test: Cyclooxygenase enzyme assay (TLC method), COX-2. The settings on record: human recombinant COX-2, preincubation 90-120 min, [1-14C]arachidonic acid 50 μM. The class given is biochemical. As for the experimental part: The compounds of formula I are potent inhibitors of COX-2. […] The resulting radiolabeled prostanoid compounds, i.e., the products of COX-2 reaction with arachidonic acid, were quantified.
(§1) Cyclooxygenase activity of ovine COX-1 (Oxford Biomedical Research Inc.) and human recombinant COX-2 Oxford Biomedical Research Inc.) was assayed by a thin layer chromatography (TLC) method as follows. All inhibitors were dissolved in dimethyl sulfoxide to a stock solution of 5 mM. Human recombinant COX-2 (3 units) or ovine COX-1 (15 units) was incubated with inhibitors at several concentrations in a solution containing 100 mM Tris-HCl, pH7.8, 500 uM phenol and hematin for 90 to 120 minutes at room temperature (24° C.). In controls, equal volumes of DMSO without drug were added to the incubation mixture. After incubation for 90-120 minutes, [1-^14C]arachidonic acid (50 μM, 51 mCi/mmol) (DuPont NEN) was added and incubated at 37° C. for 2 minutes. The reaction was terminated by extraction with 1 ml of ethyl acetate. The ethyl acetate layer was transferred into a fresh tube and evaporated to dryness in a Speedvac vacuum dryer. The contents of the tubes were reconstituted in […] of ethyl acetate and spotted on a TLC plate (J. T. Baker, Phillipsburg, N.J.) and developed in a mobile phase containing chloroform/methanol (95:5) at4° C. Radiolabeled prostanoid compounds (the products of COX enzymatic reaction with radiolabeled arachidonic acid substrate) were quantitated with a radioactivity scanner (Fuji, Phosphorimager). The percentage of total products observed at different inhibitor concentrations was divided by the percentage of the products observed for protein samples pre incubated for the same time with DMSO.

In another test the target is T2, ovine COX-1 (Ovis aries, UniProt P05979).
T2 construct: purchased Oxford Biomedical Research Inc
T2 sequence (P05979 25-600): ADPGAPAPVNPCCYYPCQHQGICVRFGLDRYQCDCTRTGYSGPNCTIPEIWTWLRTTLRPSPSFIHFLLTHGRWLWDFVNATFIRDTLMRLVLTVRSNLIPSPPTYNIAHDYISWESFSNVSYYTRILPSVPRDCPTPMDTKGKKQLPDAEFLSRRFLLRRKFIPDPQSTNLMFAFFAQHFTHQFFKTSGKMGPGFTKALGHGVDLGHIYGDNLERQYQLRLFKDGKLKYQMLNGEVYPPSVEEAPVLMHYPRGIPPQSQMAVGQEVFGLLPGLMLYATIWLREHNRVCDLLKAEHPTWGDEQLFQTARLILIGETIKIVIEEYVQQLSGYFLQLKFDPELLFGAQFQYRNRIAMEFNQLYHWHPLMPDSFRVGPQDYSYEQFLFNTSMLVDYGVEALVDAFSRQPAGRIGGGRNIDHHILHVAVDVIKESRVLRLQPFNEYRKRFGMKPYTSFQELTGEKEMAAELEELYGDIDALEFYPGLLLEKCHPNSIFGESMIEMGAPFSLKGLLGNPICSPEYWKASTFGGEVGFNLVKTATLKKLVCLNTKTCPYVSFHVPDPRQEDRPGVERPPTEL
Kind of test: Cyclooxygenase enzyme assay (TLC method), COX-1. The class given is biochemical. As to conditions: ovine COX-1, preincubation 90-120 min, [1-14C]arachidonic acid 50 μM. On the procedure: as §1

Another test has as its system DLD-1 cells. Kind of test: Soft agar assay, DLD-1 cells. The class given is cell-based, human. The settings on record: DLD-1 in soft agar, highest concentration tested, versus untreated control cells (FIG. 1). As for the experimental part: (§2) Z-styryl 2-acetoxyphenylsulfide (Example 1) was compared to the COX-2 inhibitor celecoxib in inhibiting the growth of HT29 cells in soft agar. HT29 cells are human colorectal carcinoma cells that overexpress COX-2. HT29 cells grow in soft agar and form tumors in nude mice. The soft agar assay was performed as follows. A layer of bottom agar ([…]) was placed onto 60 mm^2 tissue culture dishes. The tumor cells were trypsinized from normal growth flasks while in exponential growth. The cells were counted by using a hemacytometer and 1.0×10^5 cells were placed into the top agar mixture containing growth medium, […] and various concentrations of drugs. The concentration range was normally between 10 μM to 75 μM. The cells were not refed during the assay system; therefore, the cells were treated with one dose of the agents. The plates were stained 20 days later with a 0.05% (w/v) nitroblue tetrazolium solution (which stains only viable cells) for 48 hours. […] The same concentration of Z-styryl 2-acetoxyphenylsulfide had little affect on the growth of monolayer cells.
The same assay was carried out with DLD-1 cells. Like HT29, DLD-1 cells are human colorectal carcinoma cells that overexpress COX-2. They grow in soft agar and form tumors in nude mice. The results are shown in FIG. 1, the y-axis being the percent of cell colonies remaining in comparison to untreated control cells.

In test [1] the test system is HT29 cells. Kind of test: Soft agar assay, HT29 cells. The class given is cell-based, human. As to conditions: HT29 in soft agar. On the procedure: as §2
For test [2], the system named is HT29 cells. As to the kind of experiment: Growth of monolayer cells. The class given is cell-based, human. The settings on record: same concentration (10 μM). On the procedure:
as §2

Each structure is given as a SMILES string. pIC50: −log10 of the molar value.

Take `CC(=O)Oc1ccccc1S/C=C\c1ccc(Cl)cc1` [Example 4, Z-4-Chlorostyryl 2-acetoxyphenylsulfide]: the negative logarithm of the IC50 (pIC50) on human recombinant COX-2 was 6.70; against ovine COX-1, 5.40.
As for `CC(=O)Oc1ccccc1S/C=C\c1ccccc1` [Example 1, Z-styryl 2-acetoxyphenylsulfide], the “inhibition of cell colony growth” value in the test on DLD-1 cells came to 100%. For the same compound, the pIC50 at human recombinant COX-2 is 6.82; against ovine COX-1, 5.30. Further, in the test with HT29 cells [1] (lowest concentration tested (10 μM), one dose, stained 20 days later), the “inhibition of anchorage independent growth” value was “completely inhibited”. The “concentrations at which plates were devoid of all staining cells” value with HT29 cells [1] (nitroblue tetrazolium stain (viable cells)) was “above 20 μM”. For the same compound, the “effect on the growth of monolayer cells” value with HT29 cells [2] is reported as “little affect”.
As to `CC(=O)Oc1ccccc1S/C=C\c1ccccc1Cl` [Example 3, Z-2-Chlorostyryl 2-acetoxyphenylsulfide], the pIC50 at human recombinant COX-2 is 6.60; against ovine COX-1, 5.40.
The matching figures for `CC(=O)Oc1cccc(/C=C\Sc2ccccc2OC(C)=O)c1` [Example 10, Z-3-Acetoxystyryl 2-acetoxyphenylsulfide]: 6.15 and 5.70.
The matching figures for `CC(=O)Oc1ccccc1S/C=C\c1ccc(F)cc1` [Example 2, Z-4-Fluorostyryl 2-acetoxyphenylsulfide]: 6.46 and 5.35.

These data come from patent US6656968B1, “(Z)-styryl acetoxyphenyl sulfides as cyclooxygenase inhibitors” (Temple University - Of the Commonwealth System of Higher …, priority 1999, dated 2003).
